≈ marks a conversion by molar mass, not a printed value.
Legend:
[1] = Aqueous solubility of the compound; type: physicochemical
[2] = target: T1, P2X purinoceptor 7 (Homo sapiens) (UniProt Q99572); assay: Inhibition of human P2X7 receptor assessed as inhibition of ethidium bromide accumulation relative to control
T1 sequence (whole entry): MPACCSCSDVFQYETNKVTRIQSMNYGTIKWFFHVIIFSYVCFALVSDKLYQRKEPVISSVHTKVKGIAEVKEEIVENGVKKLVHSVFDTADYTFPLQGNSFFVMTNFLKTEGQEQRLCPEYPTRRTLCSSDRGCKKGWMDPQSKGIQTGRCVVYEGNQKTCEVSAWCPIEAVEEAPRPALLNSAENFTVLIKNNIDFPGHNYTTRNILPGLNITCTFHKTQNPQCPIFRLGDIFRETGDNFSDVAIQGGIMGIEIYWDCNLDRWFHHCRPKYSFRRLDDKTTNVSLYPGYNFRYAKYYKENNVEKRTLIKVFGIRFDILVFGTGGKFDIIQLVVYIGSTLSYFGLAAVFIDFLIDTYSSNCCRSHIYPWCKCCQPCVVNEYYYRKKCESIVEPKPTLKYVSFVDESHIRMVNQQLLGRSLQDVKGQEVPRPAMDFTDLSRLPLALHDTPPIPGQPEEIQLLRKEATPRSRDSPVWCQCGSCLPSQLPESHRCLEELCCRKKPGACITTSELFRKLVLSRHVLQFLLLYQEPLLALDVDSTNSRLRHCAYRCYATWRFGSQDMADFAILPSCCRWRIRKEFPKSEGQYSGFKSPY

P2X purinoceptor 7 [3] = target: T2, P2X purinoceptor 7 (Rattus norvegicus, UniProt Q64663); assay: Inhibition of rat P2X7 receptor assessed as inhibition of ethidium bromide accumulation
T2 sequence (Q64663 whole entry): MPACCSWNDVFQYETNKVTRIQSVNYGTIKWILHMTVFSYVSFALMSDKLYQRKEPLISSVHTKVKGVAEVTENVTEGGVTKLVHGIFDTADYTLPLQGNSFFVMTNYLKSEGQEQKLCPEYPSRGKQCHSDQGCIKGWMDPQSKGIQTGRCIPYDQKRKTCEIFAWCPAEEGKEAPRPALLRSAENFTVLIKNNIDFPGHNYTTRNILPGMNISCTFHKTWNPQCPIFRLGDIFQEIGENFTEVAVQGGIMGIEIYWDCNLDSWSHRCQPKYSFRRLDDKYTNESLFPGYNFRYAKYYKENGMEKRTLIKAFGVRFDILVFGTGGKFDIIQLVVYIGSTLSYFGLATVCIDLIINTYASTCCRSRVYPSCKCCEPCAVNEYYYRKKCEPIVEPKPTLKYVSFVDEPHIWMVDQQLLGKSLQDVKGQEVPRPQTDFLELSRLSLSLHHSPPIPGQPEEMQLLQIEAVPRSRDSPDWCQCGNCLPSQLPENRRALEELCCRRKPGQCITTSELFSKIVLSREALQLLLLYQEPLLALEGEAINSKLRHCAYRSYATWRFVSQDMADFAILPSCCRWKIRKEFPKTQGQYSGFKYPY

P2X purinoceptor 7 [4] = target: T3, P2X purinoceptor 7 (Homo sapiens, UniProt Q99572); assay: Inhibition of human P2X7 receptor assessed as inhibition of ethidium bromide accumulation
T3 sequence (Q99572 whole entry): T1 sequence (whole entry)

[5] = Half life in rat blood at 1 mg/kg, iv; type: ADME, organism-based; parameters: dose 1 mg/kg, route intravenous
[6] = Cmax in rat blood at 3 mg/kg, po; type: ADME, organism-based; parameters: dose 3 mg/kg, route oral
[7] = Tmax in rat blood at 3 mg/kg, po; type: ADME, organism-based; parameters: dose 3 mg/kg, route oral
[8] = Clearance in rat blood at 1 mg/kg, iv; type: ADME, organism-based; parameters: dose 1 mg/kg, route intravenous
Rattus norvegicus = assay: Dose normalized AUC in rat blood at 3 mg/kg, po; type: ADME, organism-based; parameters: dose 3 mg/kg, route oral; settings: in vivo
[9] = Oral bioavailability in rat blood at 3 mg/kg, po; type: ADME, organism-based
[10] = Volume of distribution at steady state in rat blood at 1 mg/kg, iv; type: ADME, organism-based; parameters: dose 1 mg/kg, route intravenous; settings: read-out: Vdss

Row | Compound | Imax [2] | IC50 (P2X purinoceptor 7 [4]) | also measured
1 | Cc1nn(-c2ccccc2)c(C)c1CC(=O)NCc1ccc(F)cc1Cl | 100% | 39.8 nM | solubility [1]: 110 µg/mL (≈ 296 µM); IC50 (P2X purinoceptor 7 [3]): 100 nM
2 | Cc1nn(-c2ccccc2)c(C)c1CNC(=O)Cc1ccc(F)cc1Cl | 100% | > 1000 nM | –
3 | Cc1cccnc1CNC(=O)Cc1c(C)nn(-c2ccccc2)c1C | 100% | > 1000 nM | –
4 | Cc1nn(-c2ccccc2)c(C)c1CC(=O)NCc1cc(Cl)cc(Cl)c1 | 100% | > 631 nM | –
5 | Cc1nn(Cc2ccccc2)c(C)c1CC(=O)NCc1ccc(F)cc1Cl | 100% | 316 nM | –
6 | Cc1nn(-c2ccccc2)c(C)c1CC(=O)NCc1cccc(Cl)c1Cl | 100% | 25.1 nM | –
7 | Cc1nn(-c2ccc(C(N)=O)cc2)c(C)c1CC(=O)NCc1ccc(F)cc1Cl | 100% | 10 nM | –
8 | Cc1nn(-c2ccccc2)c(C)c1CC(=O)NCc1ccccc1Cl | 100% | 1000 nM | –
9 | Cc1nn(-c2ccc(Cl)cc2)c(C)c1CC(=O)NCc1ccc(F)cc1Cl | 100% | 63.1 nM | –
10 | COc1ccc(-n2nc(C)c(CC(=O)NCc3ccc(F)cc3Cl)c2C)cc1 | 100% | 100 nM | –
11 | COc1ccccc1CNC(=O)Cc1c(C)nn(-c2ccccc2)c1C | 100% | > 1000 nM | –
12 | Cc1nc(-c2ccccc2)sc1CC(=O)NCc1ccc(F)cc1Cl | 100% | > 1000 nM | –
13 | Cc1nn(-c2ncccn2)c(C)c1CC(=O)NCc1ccc(F)cc1Cl | 100% | 50.1 nM | –
14 | Cc1nn(-c2ccccc2)cc1CC(=O)NCc1ccc(F)cc1Cl | 100% | 158 nM | –
15 | Cc1nn(-c2ccccc2)c(C)c1CC(=O)N(C)Cc1ccc(F)cc1Cl | 100% | > 1000 nM | –
16 | Cc1nn(-c2ccccc2)c(C)c1Cc1nnc(Cc2ccc(Cl)cc2Cl)o1 | 100% | 1260 nM | –

Row | Compound | Imax [2] | IC50 (P2X purinoceptor 7 [4]) | also measured
17 | Cc1nn(-c2ccccc2)c(C)c1CC(=O)NC1CCCCCC1 | 100% | 158 nM | –
18 | Cc1nn(-c2ccccc2)c(C)c1CC(=O)NCc1ccc(Cl)cc1Cl | 100% | 79.4 nM | –
19 | Cc1n[nH]c(C)c1CC(=O)NCc1ccc(F)cc1Cl | 100% | 20 nM | solubility [1]: 732 µg/mL (≈ 2480 µM); half-life [5]: 1.7 h; Cmax [6]: 2920 nM; IC50 (P2X purinoceptor 7 [3]): 158 nM; Tmax [7]: 1 h; clearance [8]: 15 mL/min/kg; AUC (Rattus norvegicus): 58 kg·min/L; bioavailability [9]: 90%; Vd [10]: 1.6 L/kg
20 | Cc1nn(CCO)c(C)c1CC(=O)NCc1ccc(F)cc1Cl | 100% | 200 nM | –
21 | Cc1nn(C)c(C)c1CC(=O)NCc1ccc(F)cc1Cl | 100% | 158 nM | –
22 | Cc1nn(-c2ccccc2)c(C)c1CC(=O)NC(C)(C)c1ccccc1 | 100% | 126 nM | –
23 | Cc1sc(-c2ccccc2)nc1CC(=O)NCc1ccc(F)cc1Cl | 100% | > 1000 nM | –
24 | O=C(CN1CC(=O)N(c2ccccc2)C1=O)NCc1ccc(F)cc1Cl | 100% | – | –
25 | Cc1c(CC(=O)NCc2ccc(F)cc2Cl)cnn1-c1ccccc1 | 100% | 158 nM | –
26 | Cc1nn(-c2ccccc2)c(C)c1NC(=O)NCc1ccc(F)cc1Cl | 100% | 251 nM | –
27 | Cc1nn(Cc2cccnc2)c(C)c1CC(=O)NCc1ccc(F)cc1Cl | 100% | 126 nM | –
28 | Cc1nc(-c2ccccc2)n(C)c1CC(=O)NCc1ccc(F)cc1Cl | 100% | 50.1 nM | –
29 | Cc1nn(-c2ccccc2)c(C)c1C(=O)NCc1ccc(F)cc1Cl | 100% | > 1000 nM | –
30 | Cc1nn(-c2ccccc2)c(C)c1CC(=O)NCc1ccccc1 | 100% | > 1000 nM | –
31 | Cc1oc(-c2ccccc2)nc1CC(=O)NCc1ccc(F)cc1Cl | 100% | > 1000 nM | –
32 | Cc1nn(CCN(C)C)c(C)c1CC(=O)NCc1ccc(F)cc1Cl | 100% | 316 nM | –
